In this test the target is NA of B/Tokyo/UT‐AC032/2018 (G407S) (Influenza B virus, UniProt A0A1W5M8K7, G407S). Format: biochemical.

Several values for one entry are separate records, joined by “and”; a condition that tells them apart may be missing. Equal entries are not always repeated.

Take `[H]/N=C(\N)N[C@H]1C=C(C(=O)O)O[C@@H]([C@H](OC)[C@H](O)CO)[C@@H]1NC(C)=O` [Laninamivir]: the “susceptibility to NA inhibitor (in words)” value is given as “marked reduction in susceptibility”.
Same read-out and setting: under `CCC(CC)O[C@@H]1C=C(C(=O)O)C[C@H](N)[C@H]1NC(C)=O` [Oseltamivir carboxylate] stands “moderately reduced susceptibility”; under `CC(=O)N[C@H]1[C@H]([C@H](O)[C@H](O)CO)OC(C(=O)O)=C[C@@H]1N=C(N)N` [Zanamivir], “marked reduction in susceptibility”.
In the case of Peramivir, the “fold differences in IC50” value was 64 fold and 32.1 ± 12.9 (64.2) fold; the “susceptibility to NA inhibitor (in words)” value is “marked reduction in susceptibility”. Also, under “read-out: IC50 values of NA inhibitors”, the IC50 is 32.1 nM.

Source of the values: paper PMC7182600 (Influenza and Other Respiratory Viruses, 2020).
